{"source": "patent US6361788B1", "about": "“Synergistic biocide composition” (Thor Chemie GmbH, priority 1997, dated 2002)", "type_in_all_cases": "cell-based", "key": {"Penicillium funiculosum": {"test_system": "Penicillium funiculosum", "assay": "MIC and synergy of MIT and BIT in Sabouraud maltose broth, 96 h", "protocol": "(§1) The synergy index is calculated according to the method of F. C. Kull et al., Applied Microbiology, Vol. 9 (1961), p. 538. Here the synergy index is calculated using the following formula:\n(§2) Synergy index SI=Qa/QA+Qb/QB.\nThe synergy of the two active substances MIT and BIT against the microorganism Penicillium funiculosum is shown as in Example 1.\n(§3) The test batches contained a Sabouraud maltose broth as a nutrient medium. The spore concentration was 10^6 per mL. The incubation time was 96 h at 25° C. Each sample was incubated on an incubation shaker at 120 rpm."}, "Aspergillus niger": {"test_system": "Aspergillus niger", "assay": "MIC and synergy of MIT and BIT in Sabouraud maltose broth, 96 h", "protocol": "as §1, §2\nThe synergy of the two active substances MIT and BIT against the microorganism Aspergillus niger is shown as in Example 1.\nas §3"}, "Pseudomonas aeruginosa": {"test_system": "Pseudomonas aeruginosa", "assay": "MIC and synergy of MIT and BIT in Müller-Hinton broth, 48 h", "protocol": "as §1, §2\nThe synergy of the two active substances MIT and BIT against the microorganism Pseudomonas aeruginosa is shown as in Example 1.\n(§4) The test batches again contained a Müller-Hinton broth as a nutrient medium. The cell density was 10^6 cells/mL. The incubation time was 48 h at 25° C. Each sample was incubated on an incubation shaker at 120 rpm."}, "[1]": {"test_system": "standard bacterial inoculum", "assay": "Preservation of coating composition B, repeated bacterial inoculation, streak evaluation", "design": "key to Bacterial growth (7 days + 48 h after 4th inoculation): 0: no growth; minimal growth up to 10 colonies; 2: slight growth up to 100 colonies; moderate growth up to 300 colonies; 4: uniform growth, single colonies still discernible; 5: strong growth, too many colonies to count, but not covering entire surface; 6: extensive growth, almost no individual colonies, total streak surface overgrown", "protocol": "(§5) The biocides shown in Table XI below were added respectively to 50 g of coating composition A. The stated amounts of biocide refer to the amount of coating composition A. In the MIT/BIT mixtures, the two biocides were present in a weight ratio of 1:1.\n(§6) Apart from a blank test without addition of biocide, 1 mL of a standard bacterial inoculum that contained the following bacterial strains was added to each sample of coating composition A:\n(§7) The cell density of the inoculum was 10^10 to 3·10^10 cells/mL, and the cell density of the samples was 2·10^8 to 6·10^8 cells/g. The samples were held at 30° C. for 7 days. Then a streak of each sample was produced on a nutrient agar plate, held at 30° C. for 48 h, and then evaluated for bacterial growth. The following evaluation scale was used:\n(§8) When the bacterial growth was evaluated as below 6, a second bacterial inoculum of the above-mentioned type was added to the corresponding original 50 g sample and it was again held at 30° C. for 7 days. Then a streak was again produced on a nutrient agar plate, which was again evaluated for its bacterial growth after a holding time of 48 h at 30° C.\n(§9) When the bacterial growth of the streak was evaluated as 6 for a sample, the testing of this sample was terminated. As long as a sample had not reached this number, a bacterial inoculum was again added in the above-mentioned manner and the sample was held and tested by means of a streak. This procedure was repeated as necessary, with a maximum of 4 bacterial inocula being added per sample.\nExample 9 was repeated, but using coating composition B instead of coating composition A.\nCoating composition B is a particularly low-emission plaster based on a polymer dispersion commercially available under the designation “Granol KR 3.0 LF” (company Steinwerke Kupferdreh GmbH)."}, "Pseudomonas stutzeri": {"test_system": "Pseudomonas stutzeri", "assay": "MIC and synergy of MIT and BIT in Müller-Hinton broth, 72 h", "conditions": "for growth of the microorganism: BIT 0 ppm, MIT ppm = row head c0", "protocol": "as §1, §2\nThe synergy of MIT and BIT against the microorganism Pseudomonas stutzeri is shown as in Example 1.\n(§10) The test batches again contained a Müller-Hinton broth as a nutrient medium. The cell density was 10^6 cells/mL. The incubation time was 72 h at 25° C. Each sample was incubated on an incubation shaker at 120 rpm."}, "Pseudomonas putida": {"test_system": "Pseudomonas putida", "assay": "MIC and synergy of MIT and BIT in Müller-Hinton broth, 48 h", "protocol": "as §1, §2\nThe synergy of the two active substances MIT and BIT against the microorganism Pseudomonas putida is shown as in Example 1.\nas §4"}, "Klebsiella pneumoniae": {"test_system": "Klebsiella pneumoniae", "assay": "MIC and synergy of MIT and BIT in Müller-Hinton broth, 72 h", "conditions": "for growth of the microorganism: BIT 0 ppm, MIT ppm = row head c0", "protocol": "as §1, §2\nThe synergy of the two active substances MIT and BIT against the microorganism Klebsiella pneumoniae is shown as in example 1.\nas §10"}, "[2]": {"test_system": "standard bacterial inoculum", "assay": "Preservation of coating composition A, repeated bacterial inoculation, streak evaluation", "design": "key: 0: no growth; minimal growth up to 10 colonies; 2: slight growth up to 100 colonies; moderate growth up to 300 colonies; 4: uniform growth, single colonies still discernible; 5: strong growth, too many colonies to count, but not covering entire surface; 6: extensive growth, almost no individual colonies, total streak surface overgrown", "source_text": "Biocide compositions according to the invention were incorporated into a coating composition A that is used for coating building facades. This coating composition is a plaster based on an aqueous polymer dispersion commercially available under the designation “Granol KR 3.0” (company Steinwerke Kupferdreh GmbH). The addition of the biocide composition of the invention served to preserve the coating composition before its use, i.e., while it was stored in its packing drums.\nas §5, §6, §7, §8, §9"}, "Escherichia coli": {"test_system": "Escherichia coli", "assay": "MIC and synergy of MIT and BIT in Müller-Hinton broth, 72 h", "conditions": "for growth of the microorganism: BIT 0 ppm, MIT ppm = row head c0", "protocol": "For this purpose, aqueous mixtures were produced with various concentrations of 2-methylisothiazolin-3-one (MIT) and 1,2-benzisothiazolin-3-one (BIT) and the activity of these mixtures on Escherichia coli (International Mycological Institute, Strain No. IMI 362054) was tested.\nIn addition to the biocide component and water, the aqueous mixtures contained a nutrient medium, namely a Müller-Hinton broth (commercial product “Merck No. 10393”). The cell density of Escherichia coli was 10^6 cells/mL. The incubation time was 72 h at 25° C. Each sample was incubated on an incubation shaker at 120 rpm.\nas §1, §2\nWhen the synergy index has the value 1, this means that there is an addition of the activity of the two biocides. When the synergy index has a value of less than 1, this means that a synergy of the two biocides exists."}, "[3]": {"conditions": "share of the BIT/MIT mixture at MIC, 96 h"}, "[4]": {"conditions": "MIT share of the BIT/MIT mixture at MIC, 48 h"}, "[5]": {"conditions": "MIT share of the BIT/MIT mixture at MIC, 72 h"}}, "note": "Where “and” joins values, the source holds several entries; their conditions need not be identical. Equal values may be shown once. Throughout, for growth of the microorganism: key: growth of the microorganism took place (symbol '+'); or not (symbol '−')."}
{"smiles": "Cn1sccc1=O", "note": "[MIT, 2-methylisothiazolin-3-one]", "values": [{"measurement": "MIC at Total concentration BIT + MIT Qa + Qb", "setting": "Penicillium funiculosum; 96 h", "result": 40, "unit": "ppm"}, {"measurement": "Qb/QB", "setting": "Penicillium funiculosum; 96 h", "result": 1.00}, {"measurement": "Synergy index Qa/QA + Qb/QB", "setting": "Penicillium funiculosum; 96 h", "result": 1.00}, {"measurement": "MIC at MIT concentration Qb", "setting": "Penicillium funiculosum; [3]", "result": 40, "unit": "ppm"}, {"measurement": "MIC value", "setting": "Penicillium funiculosum; used alone, 96 h at 25° C.", "result": 200, "unit": "ppm"}, {"measurement": "MIC at Total concentration BIT + MIT Qa + Qb", "setting": "Aspergillus niger; 96 h", "result": 100, "unit": "ppm"}, {"measurement": "Qb/QB", "setting": "Aspergillus niger; 96 h", "result": 1.00}, {"measurement": "Synergy index Qa/QA + Qb/QB", "setting": "Aspergillus niger; 96 h", "result": 1.00}, {"measurement": "MIC at MIT concentration Qb", "setting": "Aspergillus niger; [3]", "result": 100, "unit": "ppm"}, {"measurement": "MIC value", "setting": "Aspergillus niger; used alone, 96 h at 25° C.", "result": 750, "unit": "ppm"}, {"measurement": "MIC at Total concentration BIT + MIT Qa + Qb", "setting": "Pseudomonas aeruginosa; 48 h", "result": 30, "unit": "ppm"}, {"measurement": "Qb/QB", "setting": "Pseudomonas aeruginosa; 48 h", "result": 1.00}, {"measurement": "Synergy index Qa/QA + Qb/QB", "setting": "Pseudomonas aeruginosa; 48 h", "result": 1.00}, {"measurement": "MIC at MIT concentration Qb", "setting": "Pseudomonas aeruginosa; [4]", "result": 30, "unit": "ppm"}, {"measurement": "MIC value", "setting": "Pseudomonas aeruginosa; used alone, 48 h at 25° C.", "result": 30, "unit": "ppm"}, {"measurement": "Bacterial growth (7 days + 48 h after 4th inoculation)", "setting": "[1]; biocide 0.005% by wt", "result": 4}, {"measurement": "Bacterial growth (7 days + 48 h after 4th inoculation)", "setting": "[1]; biocide 0.01% by wt", "result": "1 (minimal growth up to 10 colonies)"}, {"measurement": "Bacterial growth (7 days + 48 h after 4th inoculation)", "setting": "[1]; biocide 0.015% by wt", "result": "1 (minimal growth up to 10 colonies)"}, {"measurement": "Bacterial growth (7 days + 48 h after 4th inoculation)", "setting": "[1]; biocide 0.02% by wt", "result": "prevented completely and 0"}, {"measurement": "Bacterial growth (7 days + 48 h after 4th inoculation)", "setting": "[1]; biocide 0.03% by wt", "result": "prevented completely and 0"}, {"measurement": "MIC at Total concentration BIT + MIT Qa + Qb", "setting": "Pseudomonas stutzeri; 72 h", "result": 12.5, "unit": "ppm"}, {"measurement": "Qb/QB", "setting": "Pseudomonas stutzeri; 72 h", "result": 1.00}, {"measurement": "Synergy index Qa/QA + Qb/QB", "setting": "Pseudomonas stutzeri; 72 h", "result": 1.00}, {"measurement": "growth of the microorganism", "setting": "Pseudomonas stutzeri; 72 h, MIT 10 ppm", "result": "+"}, {"measurement": "growth of the microorganism", "setting": "Pseudomonas stutzeri; 72 h, MIT 15 ppm", "result": "−"}, {"measurement": "MIC at MIT concentration Qb", "setting": "Pseudomonas stutzeri; [5]", "result": 12.5, "unit": "ppm"}, {"measurement": "MIC value", "setting": "Pseudomonas stutzeri; used alone, 72 h at 25° C.", "result": 12.5, "unit": "ppm"}, {"measurement": "MIC at Total concentration BIT + MIT Qa + Qb", "setting": "Pseudomonas putida; 48 h", "result": 12.5, "unit": "ppm"}, {"measurement": "Qb/QB", "setting": "Pseudomonas putida; 48 h", "result": 1.00}, {"measurement": "Synergy index Qa/QA + Qb/QB", "setting": "Pseudomonas putida; 48 h", "result": 1.00}, {"measurement": "growth of the microorganism", "setting": "Pseudomonas putida; BIT 0 ppm, MIT ppm = row head c0, 48 h", "result": "+ and −"}, {"measurement": "MIC at MIT concentration Qb", "setting": "Pseudomonas putida; [4]", "result": 12.5, "unit": "ppm"}, {"measurement": "MIC value", "setting": "Pseudomonas putida; used alone, 48 h at 25° C.", "result": 12.5, "unit": "ppm"}, {"measurement": "MIC at Total concentration BIT + MIT Qa + Qb", "setting": "Klebsiella pneumoniae; 72 h", "result": 20, "unit": "ppm"}, {"measurement": "Qb/QB", "setting": "Klebsiella pneumoniae; 72 h", "result": 1.00}, {"measurement": "Synergy index Qa/QA + Qb/QB", "setting": "Klebsiella pneumoniae; 72 h", "result": 1.00}, {"measurement": "growth of the microorganism", "setting": "Klebsiella pneumoniae; 72 h, MIT 12.5 ppm", "result": "+"}, {"measurement": "growth of the microorganism", "setting": "Klebsiella pneumoniae; 72 h, MIT 25 ppm", "result": "−"}, {"measurement": "MIC at MIT concentration Qb", "setting": "Klebsiella pneumoniae; [5]", "result": 20, "unit": "ppm"}, {"measurement": "MIC value", "setting": "Klebsiella pneumoniae; used alone, 72 h at 25° C.", "result": 20, "unit": "ppm"}, {"measurement": "Bacterial growth (7 days + 48 h after 4th inoculation)", "setting": "[2]; biocide 0.005% by wt", "result": "full bacterial growth was reached only after four inoculations and 6"}, {"measurement": "Bacterial growth (7 days + 48 h after 4th inoculation)", "setting": "[2]; biocide 0.01% by wt", "result": 5}, {"measurement": "Bacterial growth (7 days + 48 h after 4th inoculation)", "setting": "[2]; biocide 0.015% by wt", "result": 5}, {"measurement": "Bacterial growth (7 days + 48 h after 4th inoculation)", "setting": "[2]; biocide 0.02% by wt", "result": 4}, {"measurement": "Bacterial growth (7 days + 48 h after 4th inoculation)", "setting": "[2]; biocide 0.03% by wt", "result": "no bacterial growth found even after four inoculations and 0"}, {"measurement": "MIC at Total concentration BIT + MIT Qa + Qb", "setting": "Escherichia coli; 72 h", "result": 17.5, "unit": "ppm"}, {"measurement": "Qb/QB", "setting": "Escherichia coli; 72 h", "result": 1.00}, {"measurement": "Synergy index Qa/QA + Qb/QB", "setting": "Escherichia coli; 72 h, method of Kull", "result": 1.00}, {"measurement": "growth of the microorganism", "setting": "Escherichia coli; 72 h, MIT 10 ppm", "result": "+"}, {"measurement": "growth of the microorganism", "setting": "Escherichia coli; 72 h, MIT 25 ppm", "result": "−"}, {"measurement": "MIC at MIT concentration Qb", "setting": "Escherichia coli; [5]", "result": 17.5, "unit": "ppm"}, {"measurement": "MIC value", "setting": "Escherichia coli; used alone, 72 h at 25° C.", "result": 17.5, "unit": "ppm"}]}
